Experimental data published in paper PMC7179958 (CPT: Pharmacometrics & Systems Pharmacology, 2020).

Legend:
[1] = Uptake of pitavastatin and eltrombopag in cryopreserved human hepatocytes (oil spin method), comeasurement, micro‐rate constant mechanistic model; assay type: in vitro ADME; conditions: human; model 1; conditional mode (minimum‐maximum) for 1 × 10^6 cells
Protocol: (§1) Human hepatocytes were obtained from BioIVT (Brussels, Belgium; lot number: LYB; 10 donor LiverPool (8 Caucasians, 1 African American, and 1 Hispanic) and thawed according to supplier guidelines in Leibovitz L15 medium. Hepatocytes were kept on ice prior to use and were used within 3 hours of defrosting.
(§2) Cells were separated using an oil spin method similar to the literature. ^11 , ^17 After separation, the tubes were frozen on dry ice and the bottom layer was cut off.
(§3) A dilution factor of 100 was used to scale from pmol/mL/1 × 10^5 cells to nmol/mL/1 × 10^6 cells.
(§4) Passive rate constants for movement into and out of the cell (k f.X and k bX, respectively) as well as uptake transporter‐mediated rate constants for association to the transporter (k aX) and dissociation (k dX) and translocation (k tX) from the transporter into the medium and cell, respectively. […] The sets of ODEs for all the models (models 1–4; Table 1 ) tested for structural identifiability and used for parameter estimation are included in the Supplemental Material .
(§5) Parameter estimation was conducted within Monolix 2018 R2 (Lixoft, Antony, France) for each concentration and experiment as an individual data set, where to ensure positivity, a log‐normal distribution was assumed for each parameter, with a proportional residual error model for the observations.
(§6) Hepatocyte Incubations. […] Eltrombopag was dissolved in DMSO to give 30 µmol/mL, then diluted 333-fold to 90 nmol/mL in Leibovitz L15 medium. […] Briefly, 0.5 mL microtubes (12049877, Thermo-Fisher Scientific, Gothenburg, Sweden) layered with 15 µL of 4 % cesium chloride onto which 140 µL of 8:2 silicone oil: mineral oil, with oil red O was added. Samples were taken by transferring 100 µL of hepatocyte suspension into the microtube and spun for 15 s in a Minispin centrifuge (Eppendorf, Horsholm, Denmark), during which time the hepatocytes passed through the oil into the cesium chloride bottom layer. The tubes were then frozen on dry ice and the bottom layer cut off once frozen into a 1 mL deep well plate (260252, Thermo-Fisher Scientific, Gothenburg, Sweden).
(§7) Sample Extraction. 50 µL of water suitable for UPLC (MilliQ ELGA water, Merck-Millipore, Solna, Sweden) and 150 µL of stop solution (50:50 MeOH:MeCN, containing 0.8 % formic acid and 4 pmol/mL 5,5-diethyl-1,3-diphenyl-2-iminobarbituric acid as internal standard) were added to the frozen samples of the cut-off tube bottoms. Samples were mixed on a plate shaker for 1 h and then stored at – 80 °C overnight. Prior to analysis, samples were defrosted and mixed for 30 min before centrifugation of the plates at 4000 g for 20 min at 4 °C. Samples were transferred to a conical bottomed 96 well plate for analysis (249944, Thermo-Fisher Scientific, Gothenburg, Sweden) and diluted 1:1 with MilliQ ELGA water.
(§8) Mechanistic Modeling. […] An estimate for the total amount of transporters (To) can be obtained during the mechanistic modeling process (9, 10), and therefore Tf can be replaced using the conservation law during parameter estimation:
(§9) Parameter estimation for all model were conducted within the Monolix suite 2018 R2 (Lixoft, Antony, France) where to ensure positivity, a log-normal distribution was assumed for each parameter in the candidate models, together with a proportional residual error model for the observations.

human hepatocytes [2] = test: as above; assay type: in vitro ADME
Protocol: as §1, §2, §3, §4, §5, §6, §7, §8, §9

[3] = Semimechanistic PBPK model simulation in simulated healthy volunteers; set-up: species or system human
Source text: Uptake is inhibited by the opposing drug in X 3 via the respective uptake concentration at half of the maximum uptake velocity (K m.up.X) shown as the inhibition constant (K I.up). Passive movement of drug into and out of the liver is through clearances P dif.X and P def.X, respectively. Both drugs are cleared through biliary excretion (CLbi.X) into the gallbladder (X 5), and into X 2 where they can be reabsorbed.
The micro‐rate constants for transporter‐mediated uptake and passive uptake were scaled to macro‐rate constants (see Table 2 ) and then empirically scaled up to the human body (83 kg, healthy adult; ^23 see Table 2 ).
The ODE PBPK model (see Figure 1 for schematic and Supplemental Material for the set of ODEs) was developed using desolve ^27 in R‐studio (v1.1.463, R‐Studio Inc., Boston, MA) running R‐project version 3.6.0 ^28 and was similar to that used for eltrombopag and rosuvastatin. ^5 All figures in this article were generated either within Inkscape (0.93, Inkscape.org, Boston, MA) or cowplot, ggplot2, ^29 , ^30 extrafont, ^31 and Cairo. ^32

[4] = Plasma protein binding and blood:plasma ratio (literature); assay type: in vitro ADME; conditions: blood; fu.pl.P/Bl:Pl, Eq. 15, from literature values 3, 24
[5] = cited from earlier work
[6] = Fraction unbound in hepatocytes, Rapid Equilibrium Dialysis (RED) device; assay type: in vitro ADME; conditions: human, heat inactivated hepatocytes
Protocol: Fraction Unbound in Hepatocytes. The estimation of the fraction unbound in hepatocytes at equilibrium can be obtained using multiple techniques: heat inactivated hepatocytes (3); linear regression obtained using the logD7.4 (4); parameter estimation (1, 3, 5, 6) or as separate binding rate constants determined experimentally (7). […] The RED device works with low volumes across a medium chamber (500 µL, white) and incubation chamber containing the hepatocytes (300 µL, red), and as such has been reported to even out the non-specific binding (NSB) between the membrane and wells, thereby improving recovery (8). The free fraction in the incubation (fu.inc) is calculated as:
fu.inc= [medium chamber] Whiteincubation chamber(Red) . (Eq.S1)
The amount of non-specific binding (NSB) to the labware is important to understand the recovery from the RED device experiment to evaluate the reliability of fu.inc: […]

human hepatocytes [7] = conditions: cited from earlier work
[8] = Static R value for clinical TrDDI (FDA guidance); set-up: species or system human; conditions: for R value, static model: eltrombopag perpetrator (75 mg), pitavastatin victim, Eq. 2, FDA cut‐off 1.1
OATP1B1 and OATP1B3 = conditions: OATP1B1 and OATP1B3, in vitro; cited from earlier work
[9] = model 1, conditional mode (minimum‐maximum) for 1 × 10^6 cells
[10] = model 1 micro‐rate constants, conditional mode (minimum‐maximum) for 1 × 10^6 cells
[11] = human hepatocytes over 70 seconds

k el [1]: 0.00367 s⁻¹ | F T.X, fraction transported (human hepatocytes [2]; CLup.X/(CLup.X+Pdif.X), Eq. 4): 0.96 (0.94–0.98) | K m.up.X or K I.up.X (human hepatocytes [2]; from micro‐rate constants, Eq. 7): 9,525 ng/mL | P def.X (human hepatocytes [2]; k bX scaled to a clearance): 0.62 (0.55‐0.67) µL/min/1 × 10^6 cells | P dif.X (human hepatocytes [2]; k fX scaled to a clearance): 0.55 (0.46–0.61) µL/min/1 × 10^6 cells | k bX, passive rate constant out of the cell (human hepatocytes [2]; [9]): 0.21 (0.18–0.22) /min | V max.up..X, maximum uptake velocity (human hepatocytes [2]; scaled to whole liver, Eq. 6): 3.0 × 10^7 ng/min/liver | P dif.X, passive diffusion into the cell (human hepatocytes [2]; scaled to whole liver, Eq. 8): 118 mL/min/liver | P def.X, passive diffusion out of the cell (human hepatocytes [2]; scaled to whole liver, Eq. 9): 104 mL/min/liver | V max.up (human hepatocytes [2]; transporter rate constants transformed, Eq. 6): 302 (177–639) pmol/min/1 × 10^6 cells | K m.up (human hepatocytes [2]; transporter rate constants transformed, Eq. 7): 22.1 (16.7–25.5) nmol/mL | CLmet.X, metabolic clearance ([3]; PBPK model value, Eqs. 10 and 11): 93 mL/min/liver | CLbi.X, biliary clearance ([3]; PBPK model value, Eqs. 12 and 13): 165 mL/min/liver | clearance ([3]; human, plasma and urine, PBPK model value, Eq. 14): 12 mL/min | K a.X, first‐order absorption rate constant ([3]; pitavastatin, from mean residence time PO and IV, Eq. 5): 0.07 min⁻¹ | fraction unbound [4]: 0.009 | fraction unbound ([6]; RED device, overnight, pitavastatin 0.3, 10 and 100 nmol/ml, eltrombopag 30 nmol/ml, read-out: f u.inc, fraction unbound in the incubation): 0.9 | fraction unbound ([6]; pitavastatin, estimated from RED f u.inc, Eq. 16, read-out: f u.L.X, fraction unbound in the liver): 0.026 | recovery ([6]; RED device, read-out: analytical recovery): 55% | R value, static model [8]: 1.07 | R value, static model ([8]; listed as Pitavastatin): 1.06–1.07 | estimated I in.max ([8]; pitavastatin as perpetrator, clinical dose 1–4 mg): 0.5 to 3 nmol/mL
SMILES: O=C(O)C[C@H](O)C[C@H](O)/C=C/c1c(C2CC2)nc2ccccc2c1-c1ccc(F)cc1 [pitavastatin, pitavastatin calcium]
effect of pitavastatin on cellular eltrombopag (human hepatocytes [2]; experimental data, except at a pitavastatin incubation of 30–100 nmol/mL): No effect | k fX, passive rate constant into the cell (human hepatocytes [2]; [9]): 5.5 × 10^−4 (4.6 × 10^−4–6.1 × 10^−4) /min | k aX, transporter association rate constant (human hepatocytes [2]; [10]): 0.17 (0.14–0.25) /nmol/min | k dX, transporter dissociation rate constant (human hepatocytes [2]; [10]): 2.2 (1.97–2.37) /min | k tX, transporter translocation rate constant (human hepatocytes [2]; [10]): 1.65 (1.57–1.74) /min | biliary elimination of pitavastatin [5]: 53% | AUC0−∞ (literature) ([5]; pitavastatin only, oral 1 mg, converted to blood concentration, mean ± SD): 68 ± 49 ng·h/mL | Cmax ([5]; pitavastatin only, oral 1 mg, healthy volunteers, converted to blood concentration, mean ± SD): 38.8 ± 21.9 ng/mL | tmax (h) ([5]; pitavastatin only, oral 1 mg, healthy volunteers): 1 (0.5–1) h | V c.X, volume of the central compartment ([5]; pitavastatin, total blood volume): 5820. Total blood volume [ ^23 ] mL | K m.up.P (literature) (human hepatocytes [7]): 1.4 to 2 µM | P dif.P (literature) (human hepatocytes [7]): 0.4–13 µL/min/1 × 10^6 cells | V max.up.P (literature) (human hepatocytes [7]): 65–354 pmol/min/1 × 10^6 cells | k aP (literature) (human hepatocytes [7]; [11]): 7.4 (51%) /nmol/min/1 × 10^6 cells | k dP (literature) (human hepatocytes [7]; [11]): 6.3 /min/1 × 10^6 cells | k tP (literature) (human hepatocytes [7]; [11]): 4.3 (85%) /min/1 × 10^6 cells | P def.P (literature, micro‐rate constants) (human hepatocytes [7]; ref Grandjean et al. 11): 0.89 (27%) µL/min/1 × 10^6 cells | fraction transported (OATP1B1 and OATP1B3): 0.78
